Data from patent US20240158370A1, “CK1 alpha AND DUAL CK1 alpha / GSPT1 DEGRADING COMPOUNDS” (Innovo Therapeutics, Inc., priority 2022, published 2024).

Columns and labels:
CK1α = biological target: T1, CK1α (Homo sapiens, UniProt P48729+Q96SW2); test: HiBiT degradation assay, CK1α, Procedure A; type: cell-based; details: six hours
T1 construct: CSNK1A1-HiBit KI HEK293(LgBit) Cells; host or cells: HEK293(LgBit) knock-in cells
How it was run: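 Luminescence from HiBiT lytic detection, read after 20 min shaking, gave DC50 and Ymin by 4-parameter fit. Before that, cells (1×10^6 cells/ml, DMEM+10% FBS) sat 6 h at 37° C on 10-point compound series (10 μM–0.005 μM, 0.1% DMSO).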

GSPT1 = GSPT1 (Homo sapiens, UniProt P15170+Q96SW2); test: HiBiT degradation assay, GSPT1, Procedure B (Molt 4_hGSPT1_HiBIT cells); type: cell-based; parameters: Molt 4_hGSPT1_HiBIT N-terminus tagged cells were generated using CRISPR technology; endogenous in cells; host or cells: Molt 4 cells, CRISPR-edited; details: six hours
Sequence of GSPT1 (P15170 whole entry): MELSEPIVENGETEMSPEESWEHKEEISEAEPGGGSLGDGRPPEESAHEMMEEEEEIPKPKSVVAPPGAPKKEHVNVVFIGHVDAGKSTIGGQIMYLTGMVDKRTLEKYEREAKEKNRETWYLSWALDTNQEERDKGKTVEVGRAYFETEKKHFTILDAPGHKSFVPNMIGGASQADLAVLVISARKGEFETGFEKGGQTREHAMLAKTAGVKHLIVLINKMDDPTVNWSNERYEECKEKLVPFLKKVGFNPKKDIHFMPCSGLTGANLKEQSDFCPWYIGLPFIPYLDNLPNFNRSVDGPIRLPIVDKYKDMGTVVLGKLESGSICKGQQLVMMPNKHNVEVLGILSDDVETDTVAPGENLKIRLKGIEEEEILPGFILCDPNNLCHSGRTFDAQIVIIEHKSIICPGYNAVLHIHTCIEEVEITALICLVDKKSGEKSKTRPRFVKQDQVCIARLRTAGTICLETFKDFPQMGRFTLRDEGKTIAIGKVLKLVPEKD
Sequence of GSPT1 (Q96SW2 whole entry): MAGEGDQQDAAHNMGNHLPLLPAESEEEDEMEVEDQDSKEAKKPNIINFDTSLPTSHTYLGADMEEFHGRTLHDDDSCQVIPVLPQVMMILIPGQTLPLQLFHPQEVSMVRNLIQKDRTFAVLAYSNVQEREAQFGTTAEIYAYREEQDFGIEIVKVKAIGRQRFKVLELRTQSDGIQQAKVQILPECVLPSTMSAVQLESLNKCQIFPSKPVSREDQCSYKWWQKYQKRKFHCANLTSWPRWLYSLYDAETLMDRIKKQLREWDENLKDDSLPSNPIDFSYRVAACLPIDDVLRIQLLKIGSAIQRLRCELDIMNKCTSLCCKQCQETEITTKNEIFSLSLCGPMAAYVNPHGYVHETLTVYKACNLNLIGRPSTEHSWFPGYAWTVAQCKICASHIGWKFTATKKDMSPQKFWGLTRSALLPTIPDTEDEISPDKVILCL
Sequence of GSPT1 (Q16531 whole entry partner): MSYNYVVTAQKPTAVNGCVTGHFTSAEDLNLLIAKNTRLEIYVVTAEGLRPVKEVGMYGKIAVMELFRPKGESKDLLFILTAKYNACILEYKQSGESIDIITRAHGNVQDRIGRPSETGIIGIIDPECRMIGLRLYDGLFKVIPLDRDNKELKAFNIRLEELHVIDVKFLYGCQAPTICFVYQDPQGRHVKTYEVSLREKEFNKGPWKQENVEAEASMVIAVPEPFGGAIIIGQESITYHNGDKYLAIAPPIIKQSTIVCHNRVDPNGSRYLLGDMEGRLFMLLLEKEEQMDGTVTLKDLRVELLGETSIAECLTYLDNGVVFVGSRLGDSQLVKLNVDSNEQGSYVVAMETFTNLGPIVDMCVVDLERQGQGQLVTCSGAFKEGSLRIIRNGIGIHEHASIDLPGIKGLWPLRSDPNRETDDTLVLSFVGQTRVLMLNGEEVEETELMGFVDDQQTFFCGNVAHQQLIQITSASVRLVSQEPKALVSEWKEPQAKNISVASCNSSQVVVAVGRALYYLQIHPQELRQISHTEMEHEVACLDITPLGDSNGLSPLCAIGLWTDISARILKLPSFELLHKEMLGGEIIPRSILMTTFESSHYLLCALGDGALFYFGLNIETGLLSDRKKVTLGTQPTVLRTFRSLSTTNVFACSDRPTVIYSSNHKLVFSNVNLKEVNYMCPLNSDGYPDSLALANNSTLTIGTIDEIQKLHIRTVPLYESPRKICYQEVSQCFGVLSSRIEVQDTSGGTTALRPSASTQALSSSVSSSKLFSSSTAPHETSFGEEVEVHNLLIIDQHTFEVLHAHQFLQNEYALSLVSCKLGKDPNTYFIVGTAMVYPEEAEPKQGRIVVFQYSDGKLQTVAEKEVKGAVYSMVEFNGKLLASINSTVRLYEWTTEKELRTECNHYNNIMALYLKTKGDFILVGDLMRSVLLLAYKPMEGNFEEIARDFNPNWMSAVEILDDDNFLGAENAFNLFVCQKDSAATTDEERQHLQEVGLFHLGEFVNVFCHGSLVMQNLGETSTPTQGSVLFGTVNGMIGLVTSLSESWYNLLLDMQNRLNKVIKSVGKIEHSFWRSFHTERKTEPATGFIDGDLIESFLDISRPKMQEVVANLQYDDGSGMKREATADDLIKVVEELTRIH
Description: Molt 4_hGSPT1_HiBIT N-terminus tagged cells were generated using CRISPR technology. Cells were maintained in RPMI media (Thermo Fisher Scientific, Catalog #11875-093) containing 10% Fetal Bovine Serum (Thermo Fisher Scientific, Catalog #16140071) 1% Penicillin-Streptomycin (Thermo Fisher Scientific, Catalog #25200056). Cells were maintained at 37° C. in a 5% CO2 environment.
Compounds were spotted onto Cornin 384-Well, Cell Culture-Treated, Flat-Bottom, Low Flange Microplate (Fisher Scientific, Catalog #07-201-013) using a Tecan D300e digital dispenser. Ten-point dose response curves spanning from 10 μM to 0.005 μM with a 0.1% DMSO tolerance were used.
Cells were centrifuged for 5 minutes at 1200 RPMs. Cell culture media was aspirated off and cells were resuspended with RPMI+10% FBS. Cell density was determined using a Denovix CellDrop BF cell counter. Cell density was adjusted to 1×10^6 cells/ml. 40 μl of cells was added to compound treated tissue culture plates and incubated for six hours at 37° C. After six hours, cell culture plates were removed from tissue culture incubator and cooled to room temperature. 40 μl of Nano-GloHiBiT Lytic Detection Reagent (Promega, Catalog #N3040) was added to each well. Plates were placed on an orbital shaker (600 rpm) for 20 minutes. Luminescence was measured using an Envsion plate reader (Perkin Elmer). IC50 curves and Ymin were generated using a 4-parameter curve fit with GraphPad Prism software (Prism Corporation).
Results from the HiBiT assay (DC50 (nM) and Ymin (% remaining)) are shown below. All CK1α data was generated according to Procedure A. GSPT1 data for Examples 1-600, 603-620 and 703-705 was generated according to Procedure A. GSPT1 data for Examples 601, 621-702 and 706-735 was generated according to Procedure B.

T1 sequence (P48729 whole entry): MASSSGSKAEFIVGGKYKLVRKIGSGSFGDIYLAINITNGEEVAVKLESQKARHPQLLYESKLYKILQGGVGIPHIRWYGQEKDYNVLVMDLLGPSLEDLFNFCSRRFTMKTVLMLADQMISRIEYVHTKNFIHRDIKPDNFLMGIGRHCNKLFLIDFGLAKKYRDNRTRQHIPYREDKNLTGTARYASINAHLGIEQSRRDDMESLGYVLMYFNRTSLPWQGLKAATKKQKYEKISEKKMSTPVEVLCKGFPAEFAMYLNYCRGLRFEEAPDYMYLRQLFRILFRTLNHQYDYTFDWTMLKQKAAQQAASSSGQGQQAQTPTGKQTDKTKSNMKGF
T1 sequence (Q96SW2 whole entry): as the sequence (Q96SW2 whole entry) above
T1 sequence (Q16531 whole entry partner): as the sequence (Q16531 whole entry partner) above

CK1α Ymin (CK1α)	DC50 (CK1α) [nM]	DC50 (GSPT1) [nM]	GSPT1 Ymin (GSPT1)	Compound
D (D = >10- 25% remaining)	< 25	≥ 25	F (F = >75-100% remaining)	C[C@@H]1CCCCN1c1nc(-c2ccc3c(c2)CN(C2CCC(=O)NC2=O)C3=O)nn1C (stereo partly drawn) [Example 709, 3-(5-(1-methyl-5-((R)-2-methylpiperidin-1-yl)-1H-1,2,4-triazol-3-yl)-1-oxoisoindolin-2-yl)piperidine-2,6-dione]
E (E = >25-75% remaining)	< 25	≥ 25	F (F = >75-100% remaining)	Cn1ncc(-c2ccc3c(c2)CN(C2CCC(=O)NC2=O)C3=O)c1C1=CCOCC1 (stereo not drawn) [Example 693]
C (C = 0-10% remaining)	≥ 25	< 25	E (E = >25-75% remaining)	Cn1cc(-c2ccc3c(c2)CN(C2CCC(=O)NC2=O)C3=O)nc1-c1cccc(O)c1 (stereo not drawn) [Example 642]
C (C = 0-10% remaining)	< 25	< 25	F (F = >75-100% remaining)	Cn1cc(-c2ccc3c(c2)CN(C2CCC(=O)NC2=O)C3=O)nc1-c1ccccc1O (stereo not drawn) [Example 624]
D (D = >10- 25% remaining)	≥ 25	≥ 25	F (F = >75-100% remaining)	Cn1cc(-c2ccc3c(c2)CN(C2CCC(=O)NC2=O)C3=O)nc1-c1ccc(N2CCNCC2)cc1 (stereo not drawn) [Example 721]
D (D = >10- 25% remaining)	< 25	≥ 25	F (F = >75-100% remaining)	Cn1cc(-c2ccc3c(c2)CN(C2CCC(=O)NC2=O)C3=O)nc1-c1cccc(C#N)c1 (stereo not drawn) [Example 632]
D (D = >10- 25% remaining)	< 25	< 25	F (F = >75-100% remaining)	Cn1nc(-c2ccc3c(c2)CN(C2CCC(=O)NC2=O)C3=O)nc1N1CCCC1 (stereo not drawn) [Example 713, 3-(5-(1-methyl-5-(pyrrolidin-1-yl)-1H-1,2,4-triazol-3-yl)-1-oxoisoindolin-2-yl)piperidine-2,6-dione]
D (D = >10- 25% remaining)	< 25	≥ 25	F (F = >75-100% remaining)	C[C@H]1CCCCN1c1nc(-c2ccc3c(c2)CN(C2CCC(=O)NC2=O)C3=O)nn1C (stereo partly drawn) [Example 708, 3-(5-(1-methyl-5-((S)-2-methylpiperidin-1-yl)-1H-1,2,4-triazol-3-yl)-1-oxoisoindolin-2-yl)piperidine-2,6-dione]
E (E = >25-75% remaining)	≥ 25	≥ 25	F (F = >75-100% remaining)	Cn1ncc(-c2ccc3c(c2)CN(C2CCC(=O)NC2=O)C3=O)c1C1=Cc2ccccc2CC1 (stereo not drawn) [Example 701]
E (E = >25-75% remaining)	≥ 25	≥ 25	F (F = >75-100% remaining)	Cn1ncc(-c2ccc3c(c2)CN(C2CCC(=O)NC2=O)C3=O)c1C1CCOCC1 (stereo not drawn) [Example 694]
D (D = >10- 25% remaining)	< 25	< 25	F (F = >75-100% remaining)	Cc1cccc(-c2nc(-c3ccc4c(c3)CN(C3CCC(=O)NC3=O)C4=O)cn2C)c1C (stereo not drawn) [Example 650]
C (C = 0-10% remaining)	< 25	≥ 25	F (F = >75-100% remaining)	COc1ccc(Cn2cc(-c3nc(-c4ccc5c(c4)CN(C4CCC(=O)NC4=O)C5=O)cn3C)cn2)cc1 (stereo not drawn) [Example 625]
C (C = 0-10% remaining)	< 25	≥ 25	F (F = >75-100% remaining)	Cn1cc(-c2ccc3c(c2)CN(C2CCC(=O)NC2=O)C3=O)nc1-c1cccc(F)c1 (stereo not drawn) [Example 631]
D (D = >10- 25% remaining)	< 25	≥ 25	E (E = >25-75% remaining)	Cn1ncc(-c2ccc3c(c2)CN(C2CCC(=O)NC2=O)C3=O)c1C1=CCCCCC1 (stereo not drawn) [Example 697]
E (E = >25-75% remaining)	< 25	< 25	F (F = >75-100% remaining)	Cn1cc(-c2ccc3c(c2)CN(C2CCC(=O)NC2=O)C3=O)nc1-c1cccc2cnccc12 (stereo not drawn) [Example 672]
E (E = >25-75% remaining)	< 25	≥ 25	F (F = >75-100% remaining)	Cc1ccc(-c2nc(-c3ccc4c(c3)CN(C3CCC(=O)NC3=O)C4=O)cn2C)c(F)c1 (stereo not drawn) [Example 670]
D (D = >10- 25% remaining)	< 25	< 25	E (E = >25-75% remaining)	Cc1cccc(F)c1-c1nc(-c2ccc3c(c2)CN(C2CCC(=O)NC2=O)C3=O)cn1C (stereo not drawn) [Example 651]
E (E = >25-75% remaining)	< 25	< 25	F (F = >75-100% remaining)	Cn1cc(-c2ccc3c(c2)CN(C2CCC(=O)NC2=O)C3=O)nc1-c1ccc(Cl)c(C(F)(F)F)c1 (stereo not drawn) [Example 667]
D (D = >10- 25% remaining)	< 25	< 25	F (F = >75-100% remaining)	Cc1ccc(-c2nc(-c3ccc4c(c3)CN(C3CCC(=O)NC3=O)C4=O)cn2C)c(Cl)c1 (stereo not drawn) [Example 648]
D (D = >10- 25% remaining)	< 25	< 25	E (E = >25-75% remaining)	Cn1cc(-c2ccc3c(c2)CN(C2CCC(=O)NC2=O)C3=O)nc1-c1ccc2ncccc2c1 (stereo not drawn) [Example 660]
E (E = >25-75% remaining)	< 25	≥ 25	F (F = >75-100% remaining)	Cc1ccc(N)cc1-c1nc(-c2ccc3c(c2)CN(C2CCC(=O)NC2=O)C3=O)cn1C (stereo not drawn) [Example 674]
C (C = 0-10% remaining)	< 25	< 25	E (E = >25-75% remaining)	O=C1CCC(N2Cc3cc(-c4nc(C(F)F)oc4-c4ccccc4)ccc3C2=O)C(=O)N1 (stereo not drawn) [Example 735, 3-(5-(2-(difluoromethyl)-5-phenyloxazol-4-yl)-1-oxoisoindolin-2-yl) piperidine-2,6-dione]
E (E = >25-75% remaining)	≥ 25	≥ 25	F (F = >75-100% remaining)	Cn1cc(-c2ccc3c(c2)CN(C2CCC(=O)NC2=O)C3=O)nc1-c1cccc(C(N)=O)c1 (stereo not drawn) [Example 669]
C (C = 0-10% remaining)	< 25	≥ 25	F (F = >75-100% remaining)	Cn1cc(-c2ccc3c(c2)CN(C2CCC(=O)NC2=O)C3=O)nc1-c1cccc(Cl)c1 (stereo not drawn) [Example 635]
C (C = 0-10% remaining)	< 25	≥ 25	F (F = >75-100% remaining)	Cn1cc(-c2ccc3c(c2)CN(C2CCC(=O)NC2=O)C3=O)nc1-c1ccc(Cl)cc1 (stereo not drawn) [Example 629]
C (C = 0-10% remaining)	< 25	< 25	F (F = >75-100% remaining)	Cn1cc2cc(-c3nc(-c4ccc5c(c4)CN(C4CCC(=O)NC4=O)C5=O)cn3C)ccc2n1 (stereo not drawn) [Example 682]
C (C = 0-10% remaining)	< 25	≥ 25	F (F = >75-100% remaining)	Cn1c(C2CCC2)nc(-c2ccc3c(c2)CN(C2CCC(=O)NC2=O)C3=O)c1-c1ccccc1 (stereo not drawn) [Example 727, 3-(5-(2-cyclobutyl-1-methyl-5-phenyl-1H-imidazol-4-yl)-1-oxoisoindolin-2-yl)piperidine-2,6-dione]
D (D = >10- 25% remaining)	< 25	< 25	F (F = >75-100% remaining)	Cn1cc(-c2ccc3c(c2)CN(C2CCC(=O)NC2=O)C3=O)nc1-c1ccc2ccccc2c1 (stereo not drawn) [Example 652]
D (D = >10- 25% remaining)	< 25	< 25	F (F = >75-100% remaining)	CCCCc1ccc(-c2nc(-c3ccc4c(c3)CN(C3CCC(=O)NC3=O)C4=O)cn2C)s1 (stereo not drawn) [Example 687]
D (D = >10- 25% remaining)	≥ 25	< 25	F (F = >75-100% remaining)	Cn1cc(-c2ccc3c(c2)CN(C2CCC(=O)NC2=O)C3=O)nc1-c1ccc2c(c1)CC(=O)N2 (stereo not drawn) [Example 722]
